From PMC7181660, “A novel specific PERK activator reduces toxicity and extends survival in Huntington's disease models” (Scientific Reports, 2020)

Legend:
Experiment in all cases: biochemical
Format in all cases: biochemical
[1] = biological target: panel of 391 kinases (Homo sapiens, UniProt O75385); conditions: ULK1, MK-28 1 µM, ATP 1 µM
[2] = biological target: panel of 391 kinases (Homo sapiens, UniProt P22607); conditions: FGFR3, MK-28 1 µM, ATP 1 µM
[3] = biological target: panel of 391 kinases (Homo sapiens, UniProt P29597); conditions: TYK2, MK-28 1 µM, ATP 1 µM
[4] = biological target: panel of 391 kinases (Homo sapiens, UniProt Q16539); conditions: P38a/MAPK14, MK-28 1 µM, ATP 1 µM
[5] = biological target: panel of 391 kinases (Homo sapiens, UniProt Q16654); conditions: kinase PDK4/PDKH4, compound at 1 µM, single dose in duplicates, 1 µM ATP
[6] = biological target: panel of 391 kinases (Homo sapiens, UniProt Q16288); conditions: TRKC, MK-28 1 µM, ATP 1 µM
[7] = biological target: panel of 391 kinases (Homo sapiens, UniProt Q9Y3S1); conditions: WNK2, MK-28 1 µM, ATP 1 µM
[8] = biological target: panel of 391 kinases (Homo sapiens, UniProt P53671); conditions: LIMK2, MK-28 1 µM, ATP 1 µM
[9] = biological target: panel of 391 kinases (Homo sapiens, UniProt O15075); conditions: DCAMKL1, MK-28 1 µM, ATP 1 µM
[10] = biological target: panel of 391 kinases (Homo sapiens, UniProt P49759); conditions: CLK1, MK-28 1 µM, ATP 1 µM
[11] = biological target: panel of 391 kinases (Homo sapiens, UniProt Q9UBE8); conditions: NLK, MK-28 1 µM, ATP 1 µM
[12] = biological target: panel of 391 kinases (Homo sapiens, UniProt Q86Z02); conditions: HIPK1, MK-28 1 µM, ATP 1 µM
[13] = biological target: panel of 391 kinases (Homo sapiens, UniProt Q05513); conditions: PKCzeta, MK-28 1 µM, ATP 1 µM
[14] = biological target: panel of 391 kinases (Homo sapiens, UniProt Q13177); conditions: PAK2, MK-28 1 µM, ATP 1 µM
[15] = biological target: panel of 391 kinases (Homo sapiens, UniProt O94921); conditions: CDK14/cyclin Y (PFTK1), MK-28 1 µM, ATP 1 µM
[16] = biological target: panel of 391 kinases (Homo sapiens, UniProt P50613); conditions: CDK7/cyclin H, MK-28 1 µM, ATP 1 µM
[17] = biological target: panel of 391 kinases (Homo sapiens, UniProt Q16644); conditions: MAPKAPK3, MK-28 1 µM, ATP 1 µM
[18] = biological target: panel of 391 kinases (Homo sapiens, UniProt P22455); conditions: FGFR4, MK-28 1 µM, ATP 1 µM
[19] = biological target: panel of 391 kinases (Homo sapiens, UniProt Q15831); conditions: LKB1, MK-28 1 µM, ATP 1 µM
[20] = biological target: panel of 391 kinases (Homo sapiens, UniProt Q00537); conditions: CDK17/cyclin Y (PCTK2), MK-28 1 µM, ATP 1 µM
[21] = biological target: panel of 391 kinases (Homo sapiens, UniProt P29320); conditions: EPHA3, MK-28 1 µM, ATP 1 µM
[22] = biological target: panel of 391 kinases (Homo sapiens, UniProt Q05397); conditions: FAK/PTK2, MK-28 1 µM, ATP 1 µM
[23] = biological target: panel of 391 kinases (Homo sapiens, UniProt Q8IVT5); conditions: KSR1, MK-28 1 µM, ATP 1 µM
[24] = biological target: panel of 391 kinases (Homo sapiens, UniProt Q9NQU5); conditions: PAK6, MK-28 1 µM, ATP 1 µM
[25] = biological target: panel of 391 kinases (Homo sapiens, UniProt Q8TD19); conditions: NEK9, MK-28 1 µM, ATP 1 µM
[26] = biological target: panel of 391 kinases (Homo sapiens, UniProt Q13470); conditions: TNK1, MK-28 1 µM, ATP 1 µM
[27] = read-out: % Enzyme Activity (relative to DMSO controls)

CN(/N=C\c1ccc(O)c(O)c1)c1nc(-c2ccccc2)cc(-c2ccccc2)n1 [MK-28]
% Enzyme Activity (relative to DMSO controls) [1]: 97.64% | remaining activity at 1 µM [1, 27]: 100% | % Enzyme Activity (relative to DMSO controls) [2]: 103.07% | remaining activity at 1 µM [2, 27]: 103% | % Enzyme Activity (relative to DMSO controls) [3]: 90.72% | remaining activity at 1 µM [3, 27]: 91.3% | % Enzyme Activity (relative to DMSO controls) [4]: 98.53% | remaining activity at 1 µM [4, 27]: 100% | % Enzyme Activity (relative to DMSO controls) [5]: 97.96% | remaining activity at 1 µM [5, 27]: 98.2% | % Enzyme Activity (relative to DMSO controls) [6]: 91.11% | remaining activity at 1 µM [6, 27]: 92.9% | % Enzyme Activity (relative to DMSO controls) [7]: 89.30% | remaining activity at 1 µM [7, 27]: 90.7% | % Enzyme Activity (relative to DMSO controls) [8]: 94.92% | remaining activity at 1 µM [8, 27]: 95.4% | % Enzyme Activity (relative to DMSO controls) [9]: 110.18% | remaining activity at 1 µM [9, 27]: 111% | % Enzyme Activity (relative to DMSO controls) [10]: 108.65% | remaining activity at 1 µM [10, 27]: 109% | % Enzyme Activity (relative to DMSO controls) [11]: 99.19% | remaining activity at 1 µM [11, 27]: 105% | % Enzyme Activity (relative to DMSO controls) [12]: 100.46% | remaining activity at 1 µM [12, 27]: 101% | % Enzyme Activity (relative to DMSO controls) [13]: 100.19% | remaining activity at 1 µM [13, 27]: 100% | % Enzyme Activity (relative to DMSO controls) [14]: 99.51% | remaining activity at 1 µM [14, 27]: 99.7% | % Enzyme Activity (relative to DMSO controls) [15]: 103.85% | remaining activity at 1 µM [15, 27]: 105% | % Enzyme Activity (relative to DMSO controls) [16]: 106.19% | remaining activity at 1 µM [16, 27]: 108% | % Enzyme Activity (relative to DMSO controls) [17]: 71.56% | remaining activity at 1 µM [17, 27]: 74.1% | % Enzyme Activity (relative to DMSO controls) [18]: 100.59% | remaining activity at 1 µM [18, 27]: 105% | % Enzyme Activity (relative to DMSO controls) [19]: 90.38% | remaining activity at 1 µM [19, 27]: 97.4% | % Enzyme Activity (relative to DMSO controls) [20]: 104.03% | remaining activity at 1 µM [20, 27]: 109% | % Enzyme Activity (relative to DMSO controls) [21]: 93.74% | remaining activity at 1 µM [21, 27]: 106% | % Enzyme Activity (relative to DMSO controls) [22]: 97.96% | remaining activity at 1 µM [22, 27]: 98.1% | % Enzyme Activity (relative to DMSO controls) [23]: 97.81% | remaining activity at 1 µM [23, 27]: 99.7% | % Enzyme Activity (relative to DMSO controls) [24]: 97.64% | remaining activity at 1 µM [24, 27]: 98% | % Enzyme Activity (relative to DMSO controls) [25]: 96.03% | remaining activity at 1 µM [25, 27]: 101% | % Enzyme Activity (relative to DMSO controls) [26]: 104.14% | remaining activity at 1 µM [26, 27]: 108%
